pIC50: −log10 of the molar value.

The assay addresses PD-1/PD-L1 interaction (PD-1-Ig / PD-L1-His) (Homo sapiens (Human), UniProt Q9NZQ7). Put plainly: PD-1/PD-L1 Homogenous Time-Resolved Fluorescence (HTRF) binding assay. Particulars: PD-1/PD-L1 HTRF binding assay; value given as range class; read-out: Range or IC50. The source says:
The ability of the compounds of formula (I) to bind to PD-L1 was investigated using a PD-1/PD-L1 Homogenous Time-Resolved Fluorescence (HTRF) binding assay.
Homogenous Time-Resolved Fluorescence (HTRF) Binding Assay.
The interaction of PD-1 and PD-L1 can be assessed using soluble, purified preparations of the extracellular domains of the two proteins. The PD-1 and PD-L1 protein extracellular domains were expressed as fusion proteins with detection tags, for PD-1, the tag was the Fc portion of Immunoglobulin (PD-1-Ig) and for PD-L1 it was the 6 histidine motif (PD-L1-His). All binding studies were performed in an HTRF assay buffer consisting of dPBS supplemented with 0.1% […] bovine serum albumin and 0.05% (v/v) Tween-20. For the h/PD-L1-His binding assay, inhibitors were pre-incubated with PD-L1-His (10 nM final) for 15 m in 4 μl of assay buffer, followed by addition of PD-1-Ig (20 nM final) in 1 μl of assay buffer and further incubation for 15 m. HTRF detection was achieved using europium crypate-labeled anti-Ig (1 nM final) and allophycocyanin (APC) labeled anti-His (20 nM final). Antibodies were diluted in HTRF detection buffer and 5 μl was dispensed on top of the binding reaction. The reaction mixture was allowed to equilibrate for 30 minutes and the resulting signal (665 nm/620 nm ratio) was obtained using an EnVision fluorometer. Additional binding assays were established between the human proteins PD-1-Ig/PD-L2-His (20 & 5 nM, respectively) and CD80-His/PD-L1-Ig (100 & 10 nM, respectively).
Recombinant Proteins. Human PD-1 (25-167) with a C-terminal human Fc domain of immunoglobulin G (Ig) epitope tag [hPD-1 (25-167)-3S-IG] and human PD-L1 (18-239) with a C-terminal His epitope tag [hPD-L1(18-239)-TVMV-His] were expressed in HEK293T cells and purified sequentially by ProteinA affinity chromatography and size exclusion chromatography. Human PD-L2-His and CD80-His was obtained through commercial sources.
Ranges are as follows: A=0.001 to 0.010 micromolar; B=0.011 to 0.150 micromolar; C=0.151 to 10 micromolar.

Sequence of PD-1/PD-L1 interaction (PD-1-Ig / PD-L1-His) (Q9NZQ7 other isoform, or with tags, fused parts or gaps): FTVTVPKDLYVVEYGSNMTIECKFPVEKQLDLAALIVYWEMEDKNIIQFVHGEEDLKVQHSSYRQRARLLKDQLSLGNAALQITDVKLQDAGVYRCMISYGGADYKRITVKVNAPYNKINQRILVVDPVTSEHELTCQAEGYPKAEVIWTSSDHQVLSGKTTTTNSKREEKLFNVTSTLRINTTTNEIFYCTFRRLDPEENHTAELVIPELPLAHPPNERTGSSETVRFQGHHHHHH

On to `Cc1c(COc2cc(OCc3cncc(C#N)c3)c(CN3CCCC[C@@H]3C(=O)O)cc2Cl)cccc1-c1ccc2nccnc2c1` [Example 1033, (R)-1-(5-chloro-2-((5-cyanopyridin-3-yl)methoxy)-4-((2-methyl-3-(quinoxalin-6-yl)benzyl)oxy)benzyl)piperidine-2-carboxylic acid], for which the pIC50 is 6.82 to 7.96. As to `Cc1c(COc2cc(OCc3cncc(C#N)c3)c(CN[C@H](CO)C(=O)O)cc2Cl)cccc1-c1ccc2nccnc2c1` [Example 1034, (R)-2-((5-chloro-2-((5-cyanopyridin-3-yl)methoxy)-4-((2-methyl-3-(quinoxalin-6-yl)benzyl)oxy)benzyl)amino)-3-hydroxypropanoic acid], the pIC50 was 8.00 to 9.00.

In the case of `Cc1c(COc2cc(OCc3cncc(C#N)c3)c(CN[C@](C)(CO)C(=O)O)cc2Cl)cccc1-c1ccc2nccnc2c1` [Example 1035, (R)-2-((5-chloro-2-((5-cyanopyridin-3-yl)methoxy)-4-((2-methyl-3-(quinoxalin-6-yl)benzyl)oxy)benzyl)amino)-3-hydroxy-2-methylpropanoic acid], the pIC50 is 8.00 to 9.00. With `Cc1c(COc2cc(OCc3cncc(C#N)c3)c(CN[C@@](C)(CO)C(=O)O)cc2Cl)cccc1-c1ccc2nccnc2c1` [Example 1036, (S)-2-((5-chloro-2-((5-cyanopyridin-3-yl)methoxy)-4-((2-methyl-3-(quinoxalin-6-yl)benzyl)oxy)benzyl)amino)-3-hydroxy-2-methylpropanoic acid] the figure was 8.00 to 9.00.

As for `Cc1c(COc2cc(OCc3cncc(C#N)c3)c(CN[C@@](C)(CO)C(=O)O)cc2Cl)cccc1-c1cccn(CCCN2CC[C@@H](O)C2)c1=O` [Example 1037, (S)-2-((5-chloro-2-((5-cyanopyridin-3-yl)methoxy)-4-((3-(1-(3-((R)-3-hydroxypyrrolidin-1-yl)propyl)-2-oxo-1,2-dihydropyridin-3-yl)-2-methylbenzyl)oxy)benzyl)amino)-3-hydroxy-2-methylpropanoic acid], the pIC50 is 5.00 to 6.82.

For `Cc1c(COc2cc(OCc3cncc(C#N)c3)c(CN[C@](C)(CO)C(=O)O)cc2Cl)cccc1-c1cccn(CCCN2CC[C@@H](O)C2)c1=O` [Example 1038, (R)-2-((5-chloro-2-((5-cyanopyridin-3-yl)methoxy)-4-((3-(1-(3-((R)-3-hydroxypyrrolidin-1-yl)propyl)-2-oxo-1,2-dihydropyridin-3-yl)-2-methylbenzyl)oxy)benzyl)amino)-3-hydroxy-2-methylpropanoic acid], the pIC50 was 5.00 to 6.82. With `Cc1c(COc2cc(OCc3cncc(C#N)c3)c(CN3CCCC[C@H]3C(=O)O)cc2Cl)cccc1-c1cccn(CCCN2CC[C@@H](O)C2)c1=O` [Example 1039, (S)-1-(5-chloro-2-((5-cyanopyridin-3-yl)methoxy)-4-((3-(1-(3-((R)-3-hydroxypyrrolidin-1-yl)propyl)-2-oxo-1,2-dihydropyridin-3-yl)-2-methylbenzyl)oxy)benzyl)piperidine-2-carboxylic acid], the pIC50 is 5.00 to 6.82. Then `Cc1c(COc2cc(OCc3cncc(C#N)c3)c(CN[C@@H](CO)C(=O)O)cc2Cl)cccc1-c1cccn(CCCN2CC[C@@H](O)C2)c1=O` [Example 1040, (S)-2-((5-chloro-2-((5-cyanopyridin-3-yl)methoxy)-4-((3-(1-(3-((R)-3-hydroxypyrrolidin-1-yl)propyl)-2-oxo-1,2-dihydropyridin-3-yl)-2-methylbenzyl)oxy)benzyl)amino)-3-hydroxypropanoic acid], with 5.00 to 6.82.

Consider `Cc1c(COc2cc(OCc3cncc(C#N)c3)c(CN3CCCC[C@H]3C(=O)O)cc2Cl)cccc1-c1ccc2ocnc2c1` [Example 1041, (S)-1-(4-((3-(benzo[d]oxazol-5-yl)-2-methylbenzyl)oxy)-5-chloro-2-((5-cyanopyridin-3-yl)methoxy)benzyl)piperidine-2-carboxylic acid], for which the pIC50 was 8.00 to 9.00. With `Cc1c(COc2cc(OCc3cncc(C#N)c3)c(CNC(C)(CO)CO)cc2Cl)cccc1-c1ccnc(OCCCN2CCCCC2)c1Cl` [Example 2001, 5-((4-chloro-5-((3-(3-chloro-2-(3-(piperidin-1-yl)propoxy)pyridin-4-yl)-2-methylbenzyl)oxy)-2-(((1,3-dihydroxy-2-methylpropan-2-yl)amino)methyl)phenoxy)methyl)nicotinonitrile] the figure was 8.00 to 9.00; with `Cc1c(COc2cc(OCc3cncc(C#N)c3)c(CNC(C)(CO)CO)cc2Cl)cccc1-c1nccc(OCCCN2CC[C@@H](O)C2)c1Cl` [Example 2002, (R)-5-((4-chloro-5-((3-(3-chloro-4-(3-(3-hydroxypyrrolidin-1-yl)propoxy)pyridin-2-yl)-2-methylbenzyl)oxy)-2-(((1,3-dihydroxy-2-methylpropan-2-yl)amino)methyl)phenoxy)methyl)nicotinonitrile], 8.00 to 9.00. With `Cc1nn(CCCCN2CC[C@H](O)C2)c(C)c1-c1cccc(COc2cc(OCc3cncc(C#N)c3)c(CN[C@](C)(CO)C(=O)O)cc2Cl)c1C` [Example 2003, (R)-2-((5-chloro-2-((5-cyanopyridin-3-yl)methoxy)-4-((3-(1-(4-((S)-3-hydroxypyrrolidin-1-yl)butyl)-3,5-dimethyl-1H-pyrazol-4-yl)-2-methylbenzyl)oxy)benzyl)amino)-3-hydroxy-2-methylpropanoic acid], the negative logarithm of the IC50 (pIC50) was 5.00 to 6.82. For the compound `Cc1c(COc2cc(OCc3cncc(C#N)c3)c(CNC(C)(CO)CO)cc2Cl)cccc1-c1nccc(OCCCO)c1Cl` [Example 2004, 5-((4-chloro-5-((3-(3-chloro-4-(3-hydroxypropoxy)pyridin-2-yl)-2-methylbenzyl)oxy)-2-(((1,3-dihydroxy-2-methylpropan-2-yl)amino)methyl)phenoxy)methyl)nicotinonitrile], the negative-log IC50 (pIC50) is 8.00 to 9.00. With `Cc1c(COc2cc(OCc3cncc(C#N)c3)c(CN3CCCC[C@H]3C(=O)O)cc2Cl)cncc1-c1cccc(OCCCN2CC[C@@H](O)C2)c1C` [Example 2005, (S)-1-(5-chloro-2-((5-cyanopyridin-3-yl)methoxy)-4-((5-(3-(3-((R)-3-hydroxypyrrolidin-1-yl)propoxy)-2-methylphenyl)-4-methylpyridin-3-yl)methoxy)benzyl)piperidine-2-carboxylic acid] the figure was 8.00 to 9.00; with `Cc1nn(-c2cccc(COc3cc(OCc4cncc(C#N)c4)c(CNCCN4CC[C@@H](O)C4)cc3Cl)c2C)c(C)c1CNCCN1CC[C@@H](O)C1` [Example 2006, 5-((4-chloro-2-(((2-((R)-3-hydroxypyrrolidin-1-yl)ethyl)amino)methyl)-5-((3-(4-(((2-((R)-3-hydroxypyrrolidin-1-yl)ethyl)amino)methyl)-3,5-dimethyl-1H-pyrazol-1-yl)-2-methylbenzyl)oxy)phenoxy)methyl)nicotinonitrile], 5.00 to 6.82.

Take `Cc1nn(-c2cccc(COc3cc(OCc4cncc(C#N)c4)c(CN4CC[C@@H](O)C4)cc3Cl)c2C)c(C)c1CN1CC[C@@H](O)C1` [Example 2007, 5-((4-chloro-2-(((R)-3-hydroxypyrrolidin-1-yl)methyl)-5-((3-(4-(((R)-3-hydroxypyrrolidin-1-yl)methyl)-3,5-dimethyl-1H-pyrazol-1-yl)-2-methylbenzyl)oxy)phenoxy)methyl)nicotinonitrile]: the pIC50 is 5.00 to 6.82.

In the case of `Cc1c(COc2cc(OCc3cncc(C#N)c3)c(CNC(C)(CO)CO)cc2Cl)cncc1-c1cccc(OCCCN2CC[C@@H](O)C2)c1C` [Example 2008, (R)-5-((4-chloro-2-(((1,3-dihydroxy-2-methylpropan-2-yl)amino)methyl)-5-((5-(3-(3-(3-hydroxypyrrolidin-1-yl)propoxy)-2-methylphenyl)-4-methylpyridin-3-yl)methoxy)phenoxy)methyl)nicotinonitrile], the negative-log IC50 (pIC50) is 8.00 to 9.00. With `Cc1nn(-c2cccc(COc3cc(OCc4cncc(C#N)c4)c(CN[C@](C)(CO)C(=O)O)cc3Cl)c2C)c(C)c1CN1CC[C@@H](O)C1` [Example 2009, (R)-2-((5-chloro-2-((5-cyanopyridin-3-yl)methoxy)-4-((3-(4-(((R)-3-hydroxypyrrolidin-1-yl)methyl)-3,5-dimethyl-1H-pyrazol-1-yl)-2-methylbenzyl)oxy)benzyl)amino)-3-hydroxy-2-methylpropanoic acid] the figure was 5.00 to 6.82; with `Cc1c(OCCCN2CC[C@@H](O)C2)cccc1-c1ccnc(COc2cc(OCc3cncc(C#N)c3)c(CN3CCCC[C@H]3C(=O)O)cc2Cl)c1C` [Example 2011, (S)-1-(5-chloro-2-((5-cyanopyridin-3-yl)methoxy)-4-((4-(3-(3-((R)-3-hydroxypyrrolidin-1-yl)propoxy)-2-methylphenyl)-3-methylpyridin-2-yl)methoxy)benzyl)piperidine-2-carboxylic acid], 6.82 to 7.96.

These data come from patent US10590105B2, “1,3-dihydroxy-phenyl derivatives useful as immunomodulators” (BRISTOL-MYERS SQUIBB COMPANY, priority 2016, dated 2020).
